Laboratory results: the supplement of paper PMC10307832

Tests used:
Test in all cases: relative viability (nuclei count vs DMSO), 5 days (fraction); higher = more cells survive
[1] = compound: CC1=CC=C(C=C1)C(=O)CN2C3=C(CCCC3)SC2=N [Pifithrin_alpha] + C[C@]1(O)C[C@@H](c2nc(-c3ccc4ccc(-c5ccccc5)nc4c3)c3c(N)nccn32)C1 [Linsitinib] (partner 1 µM)
Outline: (§1)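 A single step with final 0.05% Triton X-100, 1% formaldehyde and 1 ug/ml Hoechst fixed the cells and stained nuclei 5 days after treatment. Lung cancer cell lines in 1536-well plates had been treated by pin tool the day after seeding with one drug alone or a fixed anchor-drug dose plus five library-drug doses (not always all listed) in √10 steps, and nuclei were counted on 4× images. Relative viability is the ratio of nuclei in treated wells to nuclei in vehicle wells, taken as the median of duplicate plates.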

Axitinib + Decitabine = compound: CNC(=O)c1ccccc1Sc1ccc2c(/C=C/c3ccccn3)n[nH]c2c1 [Axitinib] + Nc1ncn([C@H]2C[C@H](O)[C@@H](CO)O2)c(=O)n1 [Decitabine] (partner 2 µM)
Outline: as §1

Axitinib + Foretinib = compound: CNC(=O)c1ccccc1Sc1ccc2c(/C=C/c3ccccn3)n[nH]c2c1 [Axitinib] + COc1cc2c(Oc3ccc(NC(=O)C4(C(=O)Nc5ccc(F)cc5)CC4)cc3F)ccnc2cc1OCCCN1CCOCC1 [Foretinib] (partner 0.25 µM)
Outline: as §1

Bemcentinib + Alpelisib = compound: Nc1nc(Nc2ccc3c(c2)CC[C@@H](N2CCCC2)CC3)nn1-c1cc2c(nn1)-c1ccccc1CCC2 [Bemcentinib] + Cc1nc(NC(=O)N2CCC[C@H]2C(N)=O)sc1-c1ccnc(C(C)(C)C(F)(F)F)c1 [Alpelisib] (partner 2 µM)
Outline: as §1

Cell Line	relative viability ([1]; first compound 1 µM)	relative viability ([1]; first compound 3.162 µM)	relative viability ([1]; first compound 10 µM)	relative viability ([1]; first compound 31.62 µM)	relative viability ([1]; first compound 100 µM)	relative viability (Axitinib + Decitabine; first compound 0.005 µM)	relative viability (Axitinib + Decitabine; first compound 0.01581 µM)	relative viability (Axitinib + Decitabine; first compound 0.05 µM)	relative viability (Axitinib + Decitabine; first compound 0.1581 µM)	relative viability (Axitinib + Decitabine; first compound 0.5 µM)	relative viability (Axitinib + Foretinib; first compound 0.005 µM)	relative viability (Axitinib + Foretinib; first compound 0.01581 µM)	relative viability (Axitinib + Foretinib; first compound 0.05 µM)	relative viability (Axitinib + Foretinib; first compound 0.1581 µM)	relative viability (Axitinib + Foretinib; first compound 0.5 µM)	relative viability (Bemcentinib + Alpelisib; first compound 0.04 µM)	relative viability (Bemcentinib + Alpelisib; first compound 0.1265 µM)	relative viability (Bemcentinib + Alpelisib; first compound 0.4 µM)	relative viability (Bemcentinib + Alpelisib; first compound 1.265 µM)	relative viability (Bemcentinib + Alpelisib; first compound 4 µM)
NCI-H661	0.669	0.616	0.565	0.68	0.598	0.594	0.503	0.588	0.549	0.597	1.06	1.01	1.09	1.04	1.12	0.374	0.821	0.624	0.358	0.599
UMC-11	1.16	1.01	1.1	0.913	1.49	0.597	0.577	0.577	0.615	0.553	1.01	1.1	1.03	1.1	1.1	1.08	1.19	1.11	0.968	1.05
NCI-H520	1.07	1.07	0.946	0.623	1.12	0.527	0.422	0.509	0.449	0.481	0.808	0.64	0.706		0.829	0.917	1.11	1.2	1.01	0.919
COR-L23	0.974	1.02	0.882		0.871	0.504	0.454	0.419	0.511	0.397	1.1	0.953	1.13	0.948	1.02	0.874	0.778	0.965	0.9	0.904
NCI-H2023	0.674	0.511	0.63	0.46	0.476	0.209	0.243	0.238	0.219	0.226	0.906	0.943	0.911	0.923	0.923	0.678	0.602	0.72	0.528	0.587
RERF-LC-KJ	0.885	0.769	0.745	0.727	0.631	0.663	0.694	0.67	0.596	0.738	0.916	0.892	0.887	0.86	0.854	0.748	0.785	0.91	0.859	0.919
NCI-H1734	0.994	0.89	0.862	0.611	0.889	0.518	0.492	0.524	0.491	0.521	0.928	0.853	0.923	0.944	1.08	1.04	0.74	0.718	0.372	0.514
NCI-H2087	0.765	1.03	0.966	0.776	0.778	0.289	0.254	0.22	0.186	0.293	1.09	0.97	0.937	1.15	1.21	0.886	1.43	1.09	0.949	1.13
